Results: US20240294495A1, “COMPOUNDS THAT MEDIATE PROTEIN DEGRADATION AND METHODS OF USE THEREOF” (Monte Rosa Therapeutics, Inc., priority 2021, published 2024)

Assays:
CRBN-DDB1 = CRBN-DDB1 (Homo sapiens, UniProt Q96SW2); test: Compound binding to CRBN by HTRF assay; settings: CRBN-DDB1 2.5 nM, Cy5-Thalidomide 100 nM probe, 30 min incubation; read-out: HTRF Class (Cereblon binding, HTRF IC50)
Procedure: Compound activity was monitored in a Homogenous Time-Resolved Fluorescence (HTRF) assay using 1-[5-({2-[2-(2-{[2-(2,6-dioxopiperidin-3-yl)-1,3-dioxo-2,3-dihydro-1H-isoindol-4-yl]oxy}acetamido)ethoxy]ethyl}carbamoyl)pentyl]-3,3-dimethyl-2-[(1E,3E)-5-[(2E)-1,3,3-trimethyl-5-sulfo-2,3-dihydro-1H-indol-2-ylidene]penta-1,3-dien-1-yl]-3H-indol-1-ium-5-sulfonate as a fluorescent probe. Biochemical assays were conducted in Greiner white 384 well HiBase plates (Cat. No 784075-25) in 10 μL total volume. A one pot detection solution of CRBN-DDB1 (2.5 nM), Anti-His Terbium Cryptate Gold (1×, PerkinElmer Cat. #: 61HI2TLB), and Cy5-Thalidomide (100 nM, Tenova Cat.: T52461) was prepared in 20 mM HEPES, 20 mM NaCl, 0.2 mM TCEP, 0.2 mM EDTA, and 0.005% Tween20 was dispensed to each assay plate. Compounds were stored in dry, ambient temperatures at 10 mM. A 10-point, 1:3 dilution series was prepared from 10 mM stock concentrations in Echo-compatible LDV plates. 10 nL of each compound dilution series was dispensed into assays wells using an Echo 650 (Labcyte inc. USA). 10 nL of 10 mM Lenalidomide was transferred into the active-control wells for the assay and 10 nL of DMSO was transferred into the neutral-control wells. The assay was then allowed to incubate for 30 min at ambient temperature after transferring compound. Plate measurements were taken on a Pherastar FSX (BMG Labtech, Germany) using the HTRF Red filter (Ex. 337 nm, em1: 620 nm, em2: 665 nm) (Flashes: 50, Integration time: 60-400 us, Z-height: 10 mm, Ratio-multiplier: 10,000). The HTRF signal was then subsequently normalized to the neutral and active controls. Analysis and IC50 values were derived using KNIME analytics (KNIME Zurich) transformation and fitting within Collaborative Drug Discovery (Collaborative Drug Discovery USA). Ki was derived from the geometric mean of the IC50 values using the Cheng-Prustoff transformation.
(§1) In Table 2, each compound is assigned a class (HTRF class) indicating the ability for Cereblon binding by means of their HTRF IC50 values according to Example 3: A, B or C. According to the code, A represents an IC50 value of <100 nM, B represents an IC50 value>100 nM and <1000 nM, C represents an IC50 value>1000 nM. IF Class assigns each compound a code indicating the ability for GSPT1 degradation: A, B or C. According to the code, A represents a DC50 value of <30 nM, B represents a DC50 value>30 nM and <300 nM and C represents a DC50 value of >300 nM.

GSPT1 = biological target: T1, GSPT1 (Homo sapiens, UniProt P15170+Q96SW2); test: Immunofluorescence assay for GSPT1 degradation in CAL-51 cells; type: cell-based; settings: 6 h treatment, read-out: IF Class (GSPT1 degradation, DC50)
T1 construct: CAL-51 cells were purchased from DSMZ (cat. Number ACC302); endogenous in cells; host or cells: CAL-51 (DSMZ ACC302)
Procedure: The representative compounds were tested in an immunofluorescence assay for their activity to degrade GSPT1. CAL-51 cells were purchased from DSMZ (cat. Number ACC302), sub-cultured in 90% Dulbecco's MEM (4.5 g/L glucose, Gibco 11965)+10% heat inactivated FBS (BioConcept, 2-01F136I) and incubated at 37° C., 5% CO2. For the assay imaging microtiter plate Cell Carrier 96 Ultra (Perkin Elmer 6055302) were pre-coated with Fibronectin (Sigma F085, 30 μl at 0.2 μg/mL) in PBS (100 μL, Gibco 14190) for 45 min at room temperature, rinsed with PBS and CAL-51 cells (30K cells/well) were plated and let to adhere overnight. Cells were treated with compounds typically using a serial dilution ranging from 30 μM to 0.1 nM for 6 h. Compounds were stored at 10 mM DMSO stocks. Vehicle (DMSO), positive (CC-885, 10 μM) and rescue controls (positive control plus 0.2 μM bortezomib) were also included at this stage. Cells were subsequently rinsed with PBS and fixed in 10% Formalin solution (50 μl, Sigma HT5011)) for 20 min at room temperature. Following three consecutive PBS washes (100 μL), cells were permeabilized in 0.1% Triton X-100 in PBS (Sigma 93443, 50 μl) for 15 min at room temperature. Following three further PBS washes, 50 μl blocking buffer (1% BSA, Sigma A4503, in PBS) was added for 45 min for signal-to noise reduction. Primary antibody (human GSPT1, Sigma HPA052488) was diluted in blocking buffer (dil.1/300, 35 μL/well) and incubated with the cells overnight at 4° C. After three PBS washes, Alexa-fluor 488 coupled secondary antibodies (Invitrogen, A32731, dil.1/1000), Alexa-fluor 647-Phalloidin (Invitrogen, A22287, dil.1/200) and DAPI (Thermo, #62248, dil.1/1000) were diluted in blocking buffer and incubated with the samples for 2 h at room temperature. After three final PBS washes, samples were conserved in 100 μL PBS in the dark, until measurement. Image acquisition was performed on the Operetta High-Content Imager (Perkin-Elmer). Fluorescence intensity of […] (GSPT1), Alexa-Fluor 647 (Actin) and DAPI (Nucleus) were measured. For the determination of GSPT1 DC50 values, a custom algorithm implemented in the PerkinElmer image analysis software Harmony-Acapella® was developed. After user-defined setting of adjustment parameters, the analysis was run identically without human intervention for all image fields. DAPI staining of the nuclei was used to determine the location of cells using standard nuclei detection modules. Segmentation artifacts were removed by threshold-based filters for area, roundness and intensity. The outline of the cells was determined analogously from the sum of the normalized, smoothed DAPI and Actin channel, starting from each nucleus. The Alexa-Fluor 488 (GSPT1) signal intensity in each cell was finally measured, in order to obtain a Mean intensity per cell. GSPT1 degradation (DC50) was calculated after normalization to controls and data import in CDD vault Database, using non-linear regression.
as §1

Chain of CRBN-DDB1 (Q96SW2 whole entry): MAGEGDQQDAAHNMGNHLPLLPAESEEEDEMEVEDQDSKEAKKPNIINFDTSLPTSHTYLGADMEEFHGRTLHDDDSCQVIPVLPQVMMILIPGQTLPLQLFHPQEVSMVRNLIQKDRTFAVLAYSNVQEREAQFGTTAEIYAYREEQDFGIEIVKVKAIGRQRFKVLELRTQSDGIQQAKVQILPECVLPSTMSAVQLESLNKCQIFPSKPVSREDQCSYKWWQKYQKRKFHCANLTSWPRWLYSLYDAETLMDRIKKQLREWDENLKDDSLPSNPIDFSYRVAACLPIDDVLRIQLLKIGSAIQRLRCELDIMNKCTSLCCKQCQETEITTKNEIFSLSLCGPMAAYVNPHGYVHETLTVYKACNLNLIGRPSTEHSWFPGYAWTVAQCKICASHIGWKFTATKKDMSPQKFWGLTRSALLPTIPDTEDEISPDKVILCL
Chain of CRBN-DDB1 (Q16531 whole entry partner): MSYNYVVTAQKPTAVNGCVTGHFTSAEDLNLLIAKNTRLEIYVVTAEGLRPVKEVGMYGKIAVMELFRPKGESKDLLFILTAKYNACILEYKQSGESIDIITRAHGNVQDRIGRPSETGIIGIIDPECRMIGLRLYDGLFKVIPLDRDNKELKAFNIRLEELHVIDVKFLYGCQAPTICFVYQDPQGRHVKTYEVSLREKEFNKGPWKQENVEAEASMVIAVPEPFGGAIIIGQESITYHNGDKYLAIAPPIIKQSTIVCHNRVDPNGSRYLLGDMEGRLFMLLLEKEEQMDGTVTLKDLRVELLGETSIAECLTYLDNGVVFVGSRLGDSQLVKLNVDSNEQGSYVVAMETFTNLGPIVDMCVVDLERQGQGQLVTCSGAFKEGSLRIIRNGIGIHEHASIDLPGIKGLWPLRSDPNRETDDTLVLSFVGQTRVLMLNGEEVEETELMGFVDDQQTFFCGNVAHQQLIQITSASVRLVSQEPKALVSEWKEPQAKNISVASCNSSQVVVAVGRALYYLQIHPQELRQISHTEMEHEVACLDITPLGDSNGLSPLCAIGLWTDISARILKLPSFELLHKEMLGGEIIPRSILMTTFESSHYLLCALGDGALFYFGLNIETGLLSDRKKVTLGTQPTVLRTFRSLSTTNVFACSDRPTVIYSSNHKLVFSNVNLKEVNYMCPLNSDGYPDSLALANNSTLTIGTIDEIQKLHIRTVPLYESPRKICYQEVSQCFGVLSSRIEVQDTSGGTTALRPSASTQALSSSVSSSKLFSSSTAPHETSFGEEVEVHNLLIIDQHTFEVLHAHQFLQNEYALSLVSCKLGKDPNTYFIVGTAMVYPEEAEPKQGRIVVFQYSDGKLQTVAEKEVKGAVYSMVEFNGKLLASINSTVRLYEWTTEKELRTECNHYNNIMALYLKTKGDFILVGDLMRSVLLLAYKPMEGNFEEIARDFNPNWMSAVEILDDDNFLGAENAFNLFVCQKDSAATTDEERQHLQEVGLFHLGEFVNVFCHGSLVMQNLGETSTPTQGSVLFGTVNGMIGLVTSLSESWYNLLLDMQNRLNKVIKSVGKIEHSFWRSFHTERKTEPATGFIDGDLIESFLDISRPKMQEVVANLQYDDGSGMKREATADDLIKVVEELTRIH
T1 sequence (P15170 whole entry): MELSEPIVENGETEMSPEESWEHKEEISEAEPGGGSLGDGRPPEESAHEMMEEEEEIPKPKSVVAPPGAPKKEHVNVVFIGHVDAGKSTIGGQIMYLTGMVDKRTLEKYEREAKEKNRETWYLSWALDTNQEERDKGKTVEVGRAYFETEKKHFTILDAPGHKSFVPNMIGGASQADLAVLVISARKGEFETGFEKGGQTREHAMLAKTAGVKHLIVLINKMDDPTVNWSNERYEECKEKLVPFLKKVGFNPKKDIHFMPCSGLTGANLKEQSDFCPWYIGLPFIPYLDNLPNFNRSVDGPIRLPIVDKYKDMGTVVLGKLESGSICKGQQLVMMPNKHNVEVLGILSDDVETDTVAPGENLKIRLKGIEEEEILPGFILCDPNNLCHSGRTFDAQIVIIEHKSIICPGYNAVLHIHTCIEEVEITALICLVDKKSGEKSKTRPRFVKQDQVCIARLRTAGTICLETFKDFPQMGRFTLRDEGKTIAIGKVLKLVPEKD
T1 sequence (Q96SW2 whole entry): as the sequence (Q96SW2 whole entry) above
T1 sequence (Q16531 2-1140 partner limits assumed): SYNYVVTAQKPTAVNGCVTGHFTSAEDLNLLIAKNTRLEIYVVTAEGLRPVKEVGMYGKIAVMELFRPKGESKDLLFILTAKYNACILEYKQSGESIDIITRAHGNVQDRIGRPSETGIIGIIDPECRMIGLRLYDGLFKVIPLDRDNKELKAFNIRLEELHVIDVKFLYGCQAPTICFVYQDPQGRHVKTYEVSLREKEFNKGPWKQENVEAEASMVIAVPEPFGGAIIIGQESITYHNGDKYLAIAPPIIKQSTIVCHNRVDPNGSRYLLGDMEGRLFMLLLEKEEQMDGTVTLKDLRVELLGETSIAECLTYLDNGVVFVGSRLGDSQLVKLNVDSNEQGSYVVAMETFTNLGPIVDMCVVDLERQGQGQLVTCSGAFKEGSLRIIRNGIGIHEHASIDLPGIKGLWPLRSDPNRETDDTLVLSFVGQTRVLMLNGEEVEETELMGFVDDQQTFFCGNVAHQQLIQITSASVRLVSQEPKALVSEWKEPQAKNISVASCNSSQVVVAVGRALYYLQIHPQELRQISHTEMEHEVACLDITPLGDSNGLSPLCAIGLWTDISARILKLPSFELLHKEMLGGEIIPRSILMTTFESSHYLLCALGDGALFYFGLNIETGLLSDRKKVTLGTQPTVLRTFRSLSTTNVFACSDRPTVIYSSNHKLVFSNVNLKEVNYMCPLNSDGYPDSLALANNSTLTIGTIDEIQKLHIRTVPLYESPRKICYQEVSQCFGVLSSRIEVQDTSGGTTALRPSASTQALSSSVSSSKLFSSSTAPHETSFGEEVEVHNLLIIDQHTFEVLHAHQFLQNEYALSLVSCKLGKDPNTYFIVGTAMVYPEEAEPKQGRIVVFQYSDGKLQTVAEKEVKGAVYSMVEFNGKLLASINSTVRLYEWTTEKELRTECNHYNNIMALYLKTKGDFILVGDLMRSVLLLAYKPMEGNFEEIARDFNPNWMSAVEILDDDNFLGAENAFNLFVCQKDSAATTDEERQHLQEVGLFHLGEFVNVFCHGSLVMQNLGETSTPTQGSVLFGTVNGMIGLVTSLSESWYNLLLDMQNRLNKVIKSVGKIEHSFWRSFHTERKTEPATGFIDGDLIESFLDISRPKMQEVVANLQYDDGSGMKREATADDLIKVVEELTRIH

Compound | IC50 (CRBN-DDB1) [nM] | DC50 (GSPT1) [nM]
Cc1cc(CC(=O)NC2CN(c3cc(F)c(C4CCC(=O)NC4=O)c(F)c3)C2)ccc1F (stereo not drawn) [Compound 30, N-(1-(4-(2,6-dioxopiperidin-3-yl)-3,5-difluorophenyl)azetidin-3-yl)-2-(4-fluoro-3-methylphenyl)acetamide] | 100 to 1000 | 30 to 300
O=C1CCC(c2c(F)cc(N3CC(NC(=O)Cc4ccc(Cl)cc4F)C3)cc2F)C(=O)N1 (stereo not drawn) [Compound 31, 2-(4-chloro-2-fluorophenyl)-N-(1-(4-(2,6-dioxopiperidin-3-yl)-3,5-difluorophenyl)azetidin-3-yl)acetamide] | 100 to 1000 | 30 to 300
O=C1CCC(c2c(F)cc(N3CC(NC(=O)Cc4cccc(Cl)c4)C3)cc2F)C(=O)N1 (stereo not drawn) [Compound 32, 2-(3-chlorophenyl)-N-(1-(4-(2,6-dioxo-3-piperidyl)-3,5-difluoro-phenyl)azetidin-3-yl)acetamide] | 100 to 1000 | 30 to 300
Cc1cc(CC(=O)NC2CN(c3ccc(C4CCC(=O)NC4=O)c(Cl)c3)C2)ccc1Cl (stereo not drawn) [Compound 33, 2-(4-chloro-3-methylphenyl)-N-(1-(3-chloro-4-(2,6-dioxopiperidin-3-yl)phenyl)azetidin-3-yl)acetamide] | 100 to 1000 | 30 to 300
O=C1CCC(c2c(F)cc(N3CC(NC(=O)Cc4ccc(Cl)cc4)C3)cc2F)C(=O)N1 (stereo not drawn) [Compound 36, 2-(4-chlorophenyl)-N-(1-(4-(2,6-dioxopiperidin-3-yl)-3,5-difluorophenyl)azetidin-3-yl)acetamide] | 100 to 1000 | > 300
Cc1ccc(NC(=O)CC2CN(c3cc(F)c(C4CCC(=O)NC4=O)c(F)c3)C2)cc1Cl (stereo not drawn) [Compound 40, N-(3-chloro-4-methylphenyl)-2-(1-(4-(2,6-dioxopiperidin-3-yl)-3,5-difluorophenyl)azetidin-3-yl)acetamide] | > 1000 | < 30
N#Cc1ccc(CC(=O)NC2CN(c3cc(F)c(C4CCC(=O)NC4=O)c(F)c3)C2)c(F)c1 (stereo not drawn) [Compound 47, 2-(4-cyano-2-fluorophenyl)-N-(1-(4-(2,6-dioxopiperidin-3-yl)-3,5-difluorophenyl)azetidin-3-yl)acetamide] | 100 to 1000 | > 300
N#Cc1ccc(CC(=O)NC2CN(c3cc(F)c(C4CCC(=O)NC4=O)c(F)c3)C2)cc1Cl (stereo not drawn) [Compound 48, 2-(3-chloro-4-cyanophenyl)-N-(1-(4-(2,6-dioxopiperidin-3-yl)-3,5-difluorophenyl)azetidin-3-yl)acetamide] | < 100 | > 300
Cc1cc(CC(=O)NC2CN(c3cc(F)c(C4CCC(=O)NC4=O)c(F)c3)C2)cc(C)n1 (stereo not drawn) [Compound 49, 2-(2,6-dimethylpyridin-4-yl)-N-(1-(4-(2,6-dioxopiperidin-3-yl)-3,5-difluorophenyl)azetidin-3-yl)acetamide] | 100 to 1000 | > 300
Cc1cc(C)cc(C(F)(F)C(=O)NC2CN(c3cc(F)c(C4CCC(=O)NC4=O)c(F)c3)C2)c1 (stereo not drawn) [Compound 50, 2-(3,5-dimethylphenyl)-N-(1-(4-(2,6-dioxopiperidin-3-yl)-3,5-difluorophenyl)azetidin-3-yl)-2,2-difluoroacetamide] | 100 to 1000 | > 300
Cc1cc(C)nc(CC(=O)NC2CN(c3cc(F)c(C4CCC(=O)NC4=O)c(F)c3)C2)c1 (stereo not drawn) [Compound 51, 2-(4,6-dimethylpyridin-2-yl)-N-(1-(4-(2,6-dioxopiperidin-3-yl)-3,5-difluorophenyl)azetidin-3-yl) acetamide] | 100 to 1000 | > 300
Cc1cc(Cl)ccc1CC(=O)NC1CN(c2cc(F)c(C3CCC(=O)NC3=O)c(F)c2)C1 (stereo not drawn) [Compound 52, 2-(4-chloro-2-methylphenyl)-N-(1-(4-(2,6-dioxopiperidin-3-yl)-3,5-difluorophenyl)azetidin-3-yl)acetamide] | 100 to 1000 | 30 to 300
